Entries after “also recorded” stand apart in the source; their conditions may differ.
Tests used:
[1] = target: T1, METTL16 MTD–MAT2A-hp1 RNA interaction (Homo sapiens, UniProt Q86W50); assay: Electrophoretic mobility shift assay (EMSA) with FAM-MAT2A-hp1 RNA; details: 50 nM METTL16, 5 nM FAM-MAT2A-hp1
T1 sequence (Q86W50 1-291): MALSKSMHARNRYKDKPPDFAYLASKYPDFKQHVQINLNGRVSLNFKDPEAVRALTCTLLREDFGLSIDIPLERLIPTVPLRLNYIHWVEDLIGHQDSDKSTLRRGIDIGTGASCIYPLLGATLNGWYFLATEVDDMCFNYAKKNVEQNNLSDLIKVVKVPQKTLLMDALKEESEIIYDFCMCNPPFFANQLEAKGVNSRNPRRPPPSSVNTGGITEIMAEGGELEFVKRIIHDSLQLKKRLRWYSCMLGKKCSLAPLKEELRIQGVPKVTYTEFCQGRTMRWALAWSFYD
Experimental: METTL16 MTD protein (1–291) was incubated with the indicated compound or DMSO in a buffer containing 20 mM HEPES, pH 7.5, 50 mM NaCl, 0.05% v/v Tween 20, and 0.05 mg/mL BGG at room temperature for 30 min; subsequently, FAM-MAT2A-hp1 RNA probe was added and incubated at room temperature for 10 min, the final of protein and RNA are 50 and 5 nM respectively, and 1% DMSO was used as the control. […] The gel was detected and imaged by Chemi Doc MP (Bio-Rad).

[2] = target: T2, METTL16–MAT2A-hp1 mRNA interaction (METTL16 MTD 1–291, FAM-labeled MAT2A-hp1 RNA) (Homo sapiens, UniProt Q86W50); assay: Fluorescence polarization (FP) assay, disruption of METTL16 binding to FAM-MAT2A-hp1 RNA
T2 sequence (Q86W50 1-291): T1 sequence (Q86W50 1-291)
Experimental: The binding of METTL16 to the FAM-labeled RNA probe formed a complex that led to a higher FP signal in comparison to that of the unbound RNA probe (Figure 2A). […] The Z-factor of 0.91 indicated the suitability of the assay condition (Figure S2D). […] In both FP assay and EMSA, a final concentration of 50 nM METTL16 and 5 nM FAM-MAT2A-hp was used. The METTL16 MTD (amino acids 1–291) was used in this study unless specifically indicated otherwise.
The FP assay was performed using 384-well black plates (Corning #4514) in a total reaction volume of 20 μL, with the final concentration of protein and RNA being 50 and 5 nM respectively. Compounds were diluted in FP buffer and incubated with protein for 30 min at room temperature, then FAM-MAT2A-hp1 RNA probe was added and the fluorescence polarization was measured using a TECAN Spark plate reader, under the excitation wavelength of 485 nm and the emission wavelength of 535 nm with bandwidth of 20 nm. 1% DMSO was used as the control. The inhibition was calculated with the equation: inhibition = 100%(Control – X)/(Control – Blank); Control: DMSO with protein and FAM-RNA; Blank: DMSO with FAM-RNA; X: compound with protein and FAM-RNA. The IC50 value was further determined using GraphPad Prism 9. […] The polarization was measured under an excitation wavelength of 630 nm and an emission wavelength of 680 nm with a bandwidth of 20 nm.

MDA-MB-231 cells [3] = assay: Cell viability, MDA-MB-231; type: cell-based, human
MDA-MB-231 cells [4] = assay: Colony formation assay; type: cell-based, human; details: 7 days, three tested concentrations
Experimental: MDA-MB-231 cells were collected and seeded with the density of 1000 cells per well into 24-well plates; after being cultured overnight, the medium was exchanged and treated with indicated compounds or DMSO (0.5%) as the control. The medium change and treatment were performed every 3 days. After 7 days, the cell culture medium was discarded, and cells were washed with PBS and fixed with 4% paraformaldehyde solution at room temperature for 15 min; the paraformaldehyde solution was removed, and cells were washed with PBS again to remove the paraformaldehyde. Then cells were stained with 0.1% (w/v) crystal violet. After staining for 15 min, the cells were washed with H2O to remove the extra dye and then photographed.

[5] = target: T3, methyltransferase activity of METTL16 MTD toward MAT2A-hp1 (Homo sapiens, UniProt Q86W50); assay: In vitro methylation assay (MTase Glo); type: biochemical; details: RNA substrate MAT2A-hp1
T3 construct: METTL16 MTD (1–291) was subcloned to pOPINB plasmid; His tag followed by HRV 3C cleavage site (N, cleaved yes); made in house; host or cells: E. coli Rosetta (DE3)
T3 sequence (Q86W50 1-291): T1 sequence (Q86W50 1-291)
Experimental: Next, we evaluated the inhibition of the METTL16 methylation using the MTase Glo assay kit (Promega) measuring the methyltransferase activity based on the formation of the methylation product S-adenosyl homocysteine, which was converted to ADP by the MTase-Glo reagent to trigger a subsequent luciferase reaction (Figure 5E).
The methyltransferase activity of METTL16 MTD was measured using an MTase Glo kit (Promega V7601) following the manufacturer’s instructions. The reaction was carried out in white 384-well plates (Corning #3824), with a total methyltransferase reaction volume of 8 μL, and the final concentrations of METTL16 MTD, MAT2A-hp1, and SAM were 1, 1, and 10 μM, respectively, and 1% of DMSO was used as a control. […] To use SAM at a different final concentration, the concentration of SAM was adjusted accordingly in a 2× substrate solution.

[6] = target: T4, METTL16 MTD–U6 snRNA Δ interaction (Homo sapiens, UniProt Q86W50); assay: FP assay with Cy5-labeled U6 snRNA Δ; type: binding
T4 construct: METTL16 MTD (1–291) was subcloned to pOPINB plasmid; His tag followed by HRV 3C cleavage site (N, cleaved yes); made in house; host or cells: E. coli Rosetta (DE3)
T4 sequence (Q86W50 1-291): T1 sequence (Q86W50 1-291)

[7] = target: T5, METTL16 MTD–GGACU-containing RNA interaction (Homo sapiens, UniProt Q86W50); assay: EMSA with GGACU-containing RNA; details: 5 nM RNA, 600 nM METTL16 MTD
T5 sequence (Q86W50 1-291): T1 sequence (Q86W50 1-291)
Experimental: METTL16 MTD protein (1–291) was incubated with the indicated compound or DMSO in a buffer containing 20 mM HEPES, pH 7.5, 50 mM NaCl, 0.05% v/v Tween 20, and 0.05 mg/mL BGG at room temperature for 30 min; subsequently, FAM-MAT2A-hp1 RNA probe was added and incubated at room temperature for 10 min, the final of protein and RNA are 50 and 5 nM respectively, and 1% DMSO was used as the control. […] The gel was detected and imaged by Chemi Doc MP (Bio-Rad). […] EMSA for testing compounds with GGAUC-motif containing RNA and METTL16 MTD interaction was performed using the method described above, expecting that the final of METTL16 MTD protein and FAM-labeled-GGACU RNA are 600 nM and 5 nM respectively. EMSA for RNA binding: indicated concentrations of fluorophore-labeled RNA were incubated with indicated concentrations of protein in EMSA buffer for 15 min at room temperature, then loaded to native PAGE gels and imaged with the method described above.

[8] = target: T6, METTL16 MTD (methyltransferase domain) (Homo sapiens, UniProt Q86W50 1-291); assay: competition FP; vs FAM-MAT2A-hp1; 20 mM HEPES pH 7.5, 50 mM NaCl, 0.05% Tween 20, 0.05 mg/mL BGG, room temperature; EMSA 6.6% native PAGE 0.5x TBE at 4 C; details: protein: recombinant; tags: N-terminal His tag removed by HRV 3C (His-tagged form also purified)
T6 sequence: T1 sequence (Q86W50 1-291)

[9] = target: T6, METTL16 MTD (methyltransferase domain); assay: competition FP; vs FAM-MAT2A-hp1; more potent than GGACU-RNA and pre-miR-17-hp bp; 20 mM HEPES pH 7.5, 50 mM NaCl, 0.05% Tween 20, 0.05 mg/mL BGG, room temperature; EMSA 6.6% native PAGE 0.5x TBE at 4 C; details: protein: recombinant, tags: N-terminal His tag removed by HRV 3C (His-tagged form also purified)

COc1ccc(S(=O)(=O)NC2=NC(=O)C(=C3C(=O)Nc4ccc(Cl)cc43)S2)cc1 [Compound 1]
disruption of METTL16–MAT2A-hp1 RNA binding in EMSA, in words [1]: dose-dependent inhibition | IC50 [2]: 16.3 µM

O=C1N=C(NS(=O)(=O)c2ccc(C(=O)O)cc2)SC1=C1C(=O)Nc2ccc(Cl)cc21 [Compound 27]
effect on cell viability, in words (MDA-MB-231 cells [3]): mild antiviability effect | inhibition on colony formation, in words (MDA-MB-231 cells [4]): mild inhibitory activity against colony formation | inhibition of the methyltransferase activity of METTL16 MTD, in words [5]: dose-dependently inhibited; also recorded: potent inhibitory activity | IC50 [6]: 6.6 µM | inhibition of METTL16–GGACU RNA binding in EMSA, in words [7]: dose-dependently inhibited | IC50 [2]: 2.7 µM

B1: GGACU-RNA (unlabeled) (ssRNA)
RNA: UUCUUCUGUGGACUGUG
IC50 [8]: 0.814 µM

B2: pre-miR-21-hp (structured_RNA)
RNA: GGGUUGACUGUUGAAUCUCAUGGCAACCC
binding result ([9]; hairpin): binds

B3: pre-miR-17-hp (structured_RNA)
RNA: GUGCAGGUAGUGAUAUGUGCAUCUACUGCAC
binding result ([9]; hairpin with two bulges): binds
